This is an account of results in ChEMBL document CHEMBL1155902, “Nitrogen-containing flavonoid analogues as CDK1/cyclin B inhibitors: synthesis, SAR analysis, and biological activity” (Bioorg Med Chem, 2008).

The assay concerns the target Cyclin-dependent kinase 1/cyclin B1 (Homo sapiens, UniProt P06493). Description: Inhibition of Cdk1/cyclin B. Type of assay: protein-complex assay.

For orientation: IC50 means the concentration at which inhibition is half-maximal. Read a low IC50 as higher potency.

Sequence of Cyclin-dependent kinase 1/cyclin B1 (P06493 whole entry): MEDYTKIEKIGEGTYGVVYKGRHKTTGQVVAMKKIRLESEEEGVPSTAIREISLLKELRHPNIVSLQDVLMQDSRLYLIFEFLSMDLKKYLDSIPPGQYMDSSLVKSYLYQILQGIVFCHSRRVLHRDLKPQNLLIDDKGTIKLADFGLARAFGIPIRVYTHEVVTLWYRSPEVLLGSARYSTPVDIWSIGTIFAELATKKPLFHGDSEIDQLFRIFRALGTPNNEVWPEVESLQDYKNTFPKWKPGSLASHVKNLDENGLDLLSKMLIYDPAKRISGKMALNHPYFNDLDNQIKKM
Sequence of Cyclin-dependent kinase 1/cyclin B1 (P14635 whole entry, further chain): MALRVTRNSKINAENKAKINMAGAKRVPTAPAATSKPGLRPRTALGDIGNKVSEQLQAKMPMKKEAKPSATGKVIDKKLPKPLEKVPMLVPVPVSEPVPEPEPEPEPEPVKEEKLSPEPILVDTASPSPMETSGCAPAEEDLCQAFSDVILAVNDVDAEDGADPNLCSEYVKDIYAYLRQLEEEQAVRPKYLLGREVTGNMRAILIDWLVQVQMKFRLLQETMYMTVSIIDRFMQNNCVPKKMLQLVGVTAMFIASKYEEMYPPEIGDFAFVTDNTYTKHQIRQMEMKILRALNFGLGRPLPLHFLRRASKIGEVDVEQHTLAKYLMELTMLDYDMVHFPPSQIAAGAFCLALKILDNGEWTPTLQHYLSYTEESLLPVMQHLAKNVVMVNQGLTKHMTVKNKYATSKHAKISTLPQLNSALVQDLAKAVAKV

`COc1ccc(C(=O)/C=C/c2ccccc2)c(O)c1` gave an IC50 of over 20 µM. As for `COc1cc(O)c(C(=O)/C=C/c2ccccc2)cc1CN(C)C`, the figure is over 20 µM; as for `CN(C)Cc1c(O)cc(O)c2c(=O)c(O)c(-c3ccc(O)c(O)c3)oc12`, 15.7 µM. For the molecule `O=c1cc(-c2ccccc2)oc2c(CN3CCCC3)c(O)c(O)c(O)c12`, the IC50 was 1.22 µM. As for `O=c1cc(-c2ccccc2)oc2c(CN3CCCCC3)c(O)c(O)c(O)c12`, the figure is 1.28 µM. For `COc1cc(O)c(C(=O)/C=C/c2ccccc2)cc1CN1CCCCC1`, the IC50 is over 20 µM. Molecule `CN(C)Cc1c(O)c(O)c(O)c2c(=O)cc(-c3ccccc3)oc12` gave an IC50 of 1.05 µM. Molecule `O=c1cc(-c2ccccc2)oc2c(CN3CCSCC3)c(O)c(O)c(O)c12` showed an IC50 of 0.38 µM. To `O=c1c(O)c(-c2ccc(O)c(O)c2)oc2c(CN3CCCCC3)c(O)cc(O)c12` belongs 18.7 µM; to `O=c1c(O)c(-c2ccc(O)c(O)c2)oc2c(CN3CCOCC3)c(O)cc(O)c12`, over 20 µM. The molecule `CN1CCN(Cc2c(O)c(O)c(O)c3c(=O)cc(-c4ccccc4)oc23)CC1` came in with an IC50 of 0.27 µM. `COc1cc(O)c(C(=O)/C=C/c2ccccc2)cc1CN1CCOCC1` gave an IC50 of over 20 µM. Consider `COc1cc(O)c(C(=O)/C=C/c2ccccc2)cc1CN1CCN(C)CC1`, for which the IC50 was over 20 µM. Turning to `COc1cc(O)c(C(=O)/C=C/c2ccccc2)cc1CN1CCCC1`, the IC50 was over 20 µM.

The molecule `COc1cc(O)c(C(=O)/C=C/c2ccccc2)cc1CN1CCSCC1` showed a half-inhibitory concentration (IC50) of over 20 µM. As for `O=c1cc(-c2ccccc2)oc2c(CN3CCOCC3)c(O)c(O)c(O)c12`, the figure is 0.28 µM; as for `CN1CCN(Cc2c(O)cc(O)c3c(=O)c(O)c(-c4ccc(O)c(O)c4)oc23)CC1`, over 20 µM; as for `O=c1cc(-c2ccccc2)oc2cc(O)c(O)c(O)c12` [BAICALEIN], 6.53 µM.

`COC(=O)[C@H]1O[C@@H](Oc2cc3oc(-c4ccccc4)cc(=O)c3c(O)c2O)[C@H](O)[C@H](O)[C@@H]1O` [BAICALIN METHYLATE] showed an IC50 of 11.6 µM. The molecule `O=C(O)[C@H]1O[C@@H](Oc2cc3oc(-c4ccccc4)cc(=O)c3c(O)c2O)[C@H](O)[C@@H](O)[C@@H]1O` [BAICALIN] gave an IC50 of 14.4 µM.

`O=c1c(O)c(-c2ccc(O)c(O)c2)oc2cc(O)cc(O)c12` [QUERCETIN]: the IC50 was over 20 µM.
